According to patent publication US20240025893A1, “PYRIMIDINE-AND NITROGEN-CONTAINING BICYCLIC COMPOUND” (Asahi Kasei Pharma Corporation, priority 2020, published 2024):

Tests used:
human IRAK-4 = human IRAK-4 (Homo sapiens (Human), UniProt Q9NWZ3); assay: Measurement of human IRAK-4 inhibitory activity (TR-FRET, peptide substrate phosphorylation, 10 μM ATP); assay type: biochemical; settings: 1 nM IRAK-4, 10 μM ATP, 23° C., 30 minutes; average values
Method: For the measurement of the activity of the human IRAK-4 (Invitrogen, Cat. PV3362), phosphorylation of the IRAK-4 peptide substrate (biotin-KKKKRFSFKKSFKC) by the enzyme in the presence of 10 μM ATP (Sigma-Aldrich, Cat. A7699) was measured by the TR-FRET method. The enzymatic reaction was performed in a reaction buffer containing 50 mM HEPES (pH 7.2), 1 mM DTT, 0.1 mM Na3VO4, 5 mM MgCl2, 1 mM MnCl2, and 0.1% bovine serum albumin. For the measurement of the IRAK-4 inhibitory activity, a test compound was added to the reaction buffer containing 1 nM IRAK-4, 0.5 μM peptide substrate, and 10 μM ATP, and the mixture was incubated at 23° C. for 30 minutes. Then, a detection solution containing an antibody labeled with europium cryptate (0.3 μg/mL, the antibody was prepared by using the IRAK-4 peptide substrate as the antigen), streptavidin-XL665 (2 μg/mL, CisBio, Cat. 610SAXLB), 50 mM HEPES (pH 7.2), 0.1% BSA, 120 mM KF, and 66.7 mM EDTA (all the concentrations of the reagents are final concentrations) was added to terminate the reaction, and then the mixture was further incubated at 23° C. for 60 minutes. Fluorescence intensity was measured at wavelengths of 665 nm and 620 nm with a microplate reader, and the enzymatic activity was calculated as the ratio of fluorescence intensities at 665 nm and 620 nm (665 nm/620 nm).

[1] = test system: LPS-stimulated TNFα production in THP-1 cells; assay: LPS-stimulated TNFα production inhibition test using human acute monocytic leukemia cell strain THP-1; assay type: cell-based; settings: LPS 2.5 ng/mL, average values
Method: By the THP-1 assay, influence of a test compound on the TNFα production induced by LPS stimulation can be evaluated. The THP-1 cells (ATCC, Cat. TIB-202) were inoculated on a 96-well plate at a density of 1×10^5 cells/160 μL/well, a test compound was added in a volume of 20 μL, and the plate was incubated at 37° C. for 1 hour in a 5% CO2 incubator. Then, LPS in a volume of 20 μL (final concentration 2.5 ng/mL, Sigma, Cat. L2630) was added, and the plate was further incubated for 4 hours. After the incubation, the plate was centrifuged, and 100 μL of the supernatant was taken from each well, and used for evaluation of the amount of TNFα using HTRF (Cisbio, Cat. 62TNFPEB). In the measurement of the amount of TNFα, the supernatant was diluted twice with the medium, and then added to wells of a 384-well plate in a volume of 10 μL, then anti-TNFα-cryptate (5 μL), and anti-TNFα-XL665 (5 μL) were added, and the plate was left standing overnight. The fluorescence intensity ratio for the wavelengths of 620 and 665 nm (620 nm/665 nm) was measured with a microplate reader, and the amount of TNFα in the supernatant was calculated by using a calibration curve. The TNFα production suppression ratio observed with no addition of LPS was defined to be 100%, the TNFα production suppression ratio observed with no addition of the test compound was defined to be 0%, and IC50 of the test compound was calculated by using the 4-parameter logistic model of the data analysis software XLfit (ID Business Solutions Ltd.).

Sequence of human IRAK-4 (Q9NWZ3 whole entry): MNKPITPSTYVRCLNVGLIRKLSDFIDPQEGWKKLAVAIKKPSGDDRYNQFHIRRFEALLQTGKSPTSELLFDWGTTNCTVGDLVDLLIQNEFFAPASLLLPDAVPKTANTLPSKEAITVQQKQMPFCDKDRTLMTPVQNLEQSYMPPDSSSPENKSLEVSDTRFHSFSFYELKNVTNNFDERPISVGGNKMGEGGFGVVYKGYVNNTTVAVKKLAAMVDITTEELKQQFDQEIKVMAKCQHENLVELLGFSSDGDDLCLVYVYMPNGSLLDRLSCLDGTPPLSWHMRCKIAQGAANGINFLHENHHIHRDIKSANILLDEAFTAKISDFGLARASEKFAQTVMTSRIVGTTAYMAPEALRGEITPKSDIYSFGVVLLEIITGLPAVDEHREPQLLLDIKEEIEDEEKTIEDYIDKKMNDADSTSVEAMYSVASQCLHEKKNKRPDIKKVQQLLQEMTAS

| Compound | IC50 (human IRAK-4) | IC50 ([1]; Homo sapiens, THP-1, 4 h) | IC50 ([1]; 4 hours) |
| --- | --- | --- | --- |
| O=C(Nc1nc2ccc(-c3cnc(CO[C@H]4CCC[C@@H]4O)nc3)c(Cl)c2s1)C1CC1 [a-01-11] | 7.89 nM | 437 nM | – |
| O=C(Nc1nc2ccc(-c3cnc(CO[C@H]4CCC[C@@H]4O)nc3)c(F)c2s1)C1CC1 [a-01-12] | 7.75 nM | 361 nM | – |
| CCCOCc1ncc(-c2ccc3nc(NC(=O)C4CC4)sc3c2)cn1 [a-02-01, N-(6-(2-(Propoxymethyl)pyrimidin-5-yl)benzo[d]thiazol-2-yl)cyclopropanecarboxamide] | 16.1 nM | 330 nM | – |
| O=C(Nc1nc2ccc(-c3cnc(CO[C@H]4CC(F)(F)C[C@@H]4O)nc3)cc2s1)C1CC1 [a-03-01, N-(6-(2-((((1 S,2S)-4,4-Difluoro-2-hydroxycyclopentyl)oxy)methyl)pyrimidin-5-yl)benzo[d]thiazol-2-yl)cyclopropanecarboxamide] | 1.41 nM | 57 nM | – |
| O=C(Nc1nc2ccc(-c3cnc(COC4CCCC4)nc3)cc2s1)C1CC1 [a-04-01, N-(6-(2-(Cyclopentoxymethyl)pyrimidin-5-yl)-1,3-benzo[d]thiazol-2-yl)cyclopropanecarboxamide] | 1.38 nM | 261 nM | – |
| O=C(Nc1nc2ccc(-c3cnc(COC4CCC4)nc3)cc2s1)C1CC1 [a-04-03] | 2.32 nM | 355 nM | – |
| O=C(Nc1nc2ccc(-c3cnc(COC4CC(F)(F)C4)nc3)cc2s1)C1CC1 [a-04-04] | 2.32 nM | 444 nM | – |
| O=C(Nc1nc2ccc(-c3cnc(COC[C@@H]4CCCO4)nc3)cc2s1)C1CC1 [a-05-01] | 7.81 nM | 304 nM | – |
| O=C(Nc1nc2ccc(-c3cnc(CO[C@H]4CCC[C@@H]4O)nc3)cc2s1)C1CC(N2CCCC3(COC3)C2)C1 (stereo partly drawn) [b-02-75] | – | 186 nM | – |
| C[C@H]1CN(S(C)(=O)=O)CCN1[C@H]1C[C@@H](C(=O)Nc2nc3ccc(-c4cnc(CO[C@H]5CCC[C@@H]5O)nc4)cc3s2)C1 [b-05-08] | – | 81 nM | – |
| CCNC(=O)N1CCN([C@H]2C[C@@H](C(=O)Nc3nc4ccc(-c5cnc(CO[C@H]6CCC[C@@H]6O)nc5)cc4s3)C2)[C@@H](C)C1 [b-06-01] | – | 93 nM | – |
| COc1c(-c2cnc(CO[C@H]3CCC[C@@H]3O)nc2)ccc2nc(NC(=O)[C@H]3C[C@@H]3C)sc12 [c-02-02] | – | 186 nM | – |
| COCC(=O)N1CCC2(CC1)CC(C(=O)Nc1nc3ccc(-c4cnc(CO[C@H]5CCC[C@@H]5O)nc4)cc3s1)C2 [d-03-02] | – | 111 nM | – |
| O=C(Nc1nc2ccc(-c3cnc(CO[C@H]4CCC[C@@H]4O)nc3)cc2s1)C1CC2(CCN(C(=O)C3CC3)CC2)C1 [d-03-03] | – | 87 nM | – |
| O=C(Nc1nc2ccc(-c3cnc(CO[C@H]4CCC[C@@H]4O)nc3)cc2s1)C1CC2(CCN(C(=O)c3ccccc3)CC2)C1 [d-03-04] | – | 194 nM | – |
| CC(C)(C)OC1CC(C(=O)Nc2cc3cc(-c4cnc(CO[C@H]5CCC[C@@H]5O)nc4)ccn3n2)C1 (stereo partly drawn) [e-03-01, 3-(tert-Butoxy)-N-(5-(2-((((1S,2S)-2-hydroxycyclopentyl)oxy)methyl)pyrimidin-5-yl)pyrazolo[1,5-a]pyridin-2-yl)cyclobutane-1-carboxamide] | – | 168 nM | – |

Second part, the molecule after the results:

| IC50 (human IRAK-4) | IC50 ([1]; Homo sapiens, THP-1, 4 h) | IC50 ([1]; 4 hours) | Compound |
| --- | --- | --- | --- |
| 1.89 nM | 121 nM | – | O=C(Nc1nc2ccc(-c3cnc(CO[C@H]4CCC[C@@H]4O)nc3)cc2s1)C1CC1 [a-01-01, N-(6-(2-((((1S,2S)-2-Hydroxycyclopentyl)oxy)methyl)pyrimidin-5-yl)benzo[d]thiazol-2-yl)cyclopropanecarboxamide] |
| 1.98 nM | 180 nM | – | O=C(Nc1nc2ccc(-c3cnc(CO[C@H]4CCC[C@@H]4O)nc3)cc2s1)[C@H]1C[C@H]1F [a-01-02] |
| 2.69 nM | 141 nM | – | O=C(Nc1nc2ccc(-c3cnc(CO[C@H]4CCC[C@@H]4O)nc3)cc2s1)[C@@H]1C[C@H]1F [a-01-03] |
| 1.73 nM | 151 nM | – | O=C(Nc1nc2ccc(-c3cnc(CO[C@H]4CCC[C@@H]4O)nc3)cc2s1)[C@@H]1C[C@@H]1F [a-01-04] |
| 2.08 nM | 121 nM | – | O=C(Nc1nc2ccc(-c3cnc(CO[C@H]4CCC[C@@H]4O)nc3)cc2s1)C1C[C@H]1c1cccnc1 (stereo partly drawn) [a-01-05] |
| – | 170 nM | – | CO[C@H]1C[C@@H](C(=O)Nc2nc3ccc(-c4cnc(CO[C@H]5CCC[C@@H]5O)nc4)cc3s2)C1 [a-01-06] |
| 1.73 nM | 148 nM | – | Cn1cc([C@@H]2CC2C(=O)Nc2nc3ccc(-c4cnc(CO[C@H]5CCC[C@@H]5O)nc4)cc3s2)cn1 (stereo partly drawn) [a-01-07] |
| 2.66 nM | 161 nM | – | O=C(Nc1nc2ccc(-c3cnc(CO[C@H]4CCC[C@@H]4O)nc3)cc2s1)C1C[C@H]1c1ccncc1 (stereo partly drawn) [a-01-08] |
| 1.81 nM | 140 nM | – | O=C(Nc1nc2ccc(-c3cnc(CO[C@H]4CCC[C@@H]4O)nc3)cc2s1)C1C[C@H]1C1CCOCC1 (stereo partly drawn) [a-01-09] |
| 12.1 nM | 678 nM | – | COc1ccc([C@@H]2CC2C(=O)Nc2nc3ccc(-c4cnc(CO[C@H]5CCC[C@@H]5O)nc4)cc3s2)cc1 (stereo partly drawn) [a-01-10] |
| 3.39 nM | 154 nM | – | O=C(Nc1nc2ccc(-c3cnc(CO[C@H]4CCC[C@@H]4O)nc3)cc2s1)C1CC(N2CCOCC2)C1 (stereo partly drawn) [b-01-01, N-(6-(2-((((1S,2S)-2-Hydroxycyclopentyl)oxy)methyl)pyrimidin-5-yl)benzo[d]thiazol-2-yl)-3-moipholinocyclobutane-1-carboxamide] |
| 3.33 nM | – | 177 nM | O=C(Nc1nc2ccc(-c3cnc(CO[C@H]4CCC[C@@H]4O)nc3)cc2s1)C1CC(N2CC(F)C2)C1 (stereo partly drawn) [b-01-02] |
| 3.16 nM | 195 nM | – | O=C(Nc1nc2ccc(-c3cnc(CO[C@H]4CCC[C@@H]4O)nc3)cc2s1)C1CC(N2CC[C@@H](F)C2)C1 (stereo partly drawn) [b-02-01] |
| 2.79 nM | 195 nM | – | O=C(Nc1nc2ccc(-c3cnc(CO[C@H]4CCC[C@@H]4O)nc3)cc2s1)C1CC(N2CC[C@H](F)C2)C1 (stereo partly drawn) [b-02-02] |
| 2.53 nM | 166 nM | – | O=C(Nc1nc2ccc(-c3cnc(CO[C@H]4CCC[C@@H]4O)nc3)cc2s1)C1CC(N2CCCOCC2)C1 (stereo partly drawn) [b-02-03] |
| 3.64 nM | 146 nM | – | O=C(Nc1nc2ccc(-c3cnc(CO[C@H]4CCC[C@@H]4O)nc3)cc2s1)C1CC(N2CCC(F)(F)CC2)C1 (stereo partly drawn) [b-02-04] |
| 2.12 nM | 131 nM | – | C[C@@H]1COCCN1C1CC(C(=O)Nc2nc3ccc(-c4cnc(CO[C@H]5CCC[C@@H]5O)nc4)cc3s2)C1 (stereo partly drawn) [b-02-05] |
| 1.34 nM | 66 nM | – | C[C@H]1COCCN1C1CC(C(=O)Nc2nc3ccc(-c4cnc(CO[C@H]5CCC[C@@H]5O)nc4)cc3s2)C1 (stereo partly drawn) [b-02-06] |
| 2.28 nM | 164 nM | – | C[C@H]1CN(C2CC(C(=O)Nc3nc4ccc(-c5cnc(CO[C@H]6CCC[C@@H]6O)nc5)cc4s3)C2)CCO1 (stereo partly drawn) [b-02-07] |
| – | 200 nM | – | CC1(F)CN(C2CC(C(=O)Nc3nc4ccc(-c5cnc(CO[C@H]6CCC[C@@H]6O)nc5)cc4s3)C2)C1 (stereo partly drawn) [b-02-45] |
| – | 164 nM | – | O=C(Nc1nc2ccc(-c3cnc(CO[C@H]4CCC[C@@H]4O)nc3)cc2s1)C1CC(NC2CC(F)(F)C2)C1 (stereo partly drawn) [b-02-64] |
| – | 113 nM | – | CN(C1CC(C(=O)Nc2nc3ccc(-c4cnc(CO[C@H]5CCC[C@@H]5O)nc4)cc3s2)C1)C1(C#N)CC1 (stereo partly drawn) [b-02-73] |
| – | 229 nM | – | COc1c(-c2cnc(CO[C@H]3CCC[C@@H]3O)nc2)ccc2nc(NC(=O)[C@H]3C[C@H]3C)sc12 [c-02-03] |
| – | 169 nM | – | O=C(Nc1nc2ccc(-c3cnc(CO[C@H]4CCC[C@@H]4O)nc3)cc2s1)[C@H]1C[C@@H](OCC2CC2)C1 [d-04-04] |
